# Data reported in patent US12660821B2, “Herbicide compositions with epyrifenacil and 2,4-D triethanolamine salt with improved properties” (MONSANTO TECHNOLOGY LLC, priority 2020, dated 2026).
# Experiment: Partition coefficient of compound (A) between organic solvent and water (procedure G1, HPLC)
# Type: physicochemical
# Conditions: approx. 25° C.
# Description: G1: General Experimental Procedure to Determine the Partition Coefficient of Compound (A) in Solvents
# The experimental procedure for the respective solvent is as follows: (1) A solution of 10 g of compound (A) is prepared in 90 g of the respective solvent; (2) An aliquot of 10 g of the solution obtained in step (1) is added to 90 g of water in a glass bottle, which is shaken on a mechanical shaker for 4 hours at ambient temperature (approximately 25° C.); (3) The contents of the glass bottle are permitted to phase separate for 4 days at ambient temperature (approximately 25° C.); and (4) Subsamples of the resulting oil and water phases are taken and analyzed by HPLC to determine the concentrations of compound (A) in oil (Co) and water phases (Cw) respectively. The subsamples are typically centrifuged before HPLC analysis to remove traces of organic solvent from the water phase.
# The partition coefficient, analogous to the octanol-water partition coefficient, P, is calculated as Co/Cw. The partition coefficient is conveniently expressed as a logarithm […]=log Co/Cw=P.
# The ratio of determined concentrations of compound (A) in the solvent phase and the water phase typically is very large. […]
compound,measurement,setting,value
"CCOC(=O)COc1ncccc1Oc1cc(-n2c(=O)cc(C(F)(F)F)n(C)c2=O)c(F)cc1Cl [compound (A), ethyl [3-[2-chloro-4-fluoro-5-(1-methyl-6-trifluoromethyl-2,4-dioxo-1,2,3,4-tetrahydropyrimidin-3-yl)phenoxy]-2-pyridyloxy]acetate]",compound (A) in the water phase,Aromatic 200 ND as organic solvent,undetectable
same,compound (A) in the water phase,acetophenone as organic solvent,undetectable
